According to PMC8741604 (Translational Oncology, 2022):
Where a SMILES comes first, the peptide text is derived from it.

Experiments:
human PD-L1 [1] = target: T1, human PD-L1 (Homo sapiens, UniProt Q9NZQ7); assay: Bio-layer interferometry binding to PD-L1; settings: for Affinity for PD-L1 in words: bio-layer interferometry
[2] = system: CT26 murine colon carcinoma cells; assay: MTT cell viability without T cells; assay type: cell-based
[3] = system: CT26 murine colon carcinoma tumor in BALB/c mice; assay: Subcutaneous CT26 syngeneic tumor model, without pre-immunization; assay type: in vivo, mouse; settings: PD-L1ip3 peptide alone, no pre-immunization, vs untreated CT26
[4] = system: CT26 murine colon carcinoma tumor in BALB/c mice; assay: Subcutaneous CT26 syngeneic tumor model, pre-treated with CT26 cell lysate; assay type: in vivo, mouse; settings: PD-L1ip3 peptide only
human PD-L1 [5] = target: T1, human PD-L1; settings: cited from earlier work

T1 sequence (Q9NZQ7 19-290): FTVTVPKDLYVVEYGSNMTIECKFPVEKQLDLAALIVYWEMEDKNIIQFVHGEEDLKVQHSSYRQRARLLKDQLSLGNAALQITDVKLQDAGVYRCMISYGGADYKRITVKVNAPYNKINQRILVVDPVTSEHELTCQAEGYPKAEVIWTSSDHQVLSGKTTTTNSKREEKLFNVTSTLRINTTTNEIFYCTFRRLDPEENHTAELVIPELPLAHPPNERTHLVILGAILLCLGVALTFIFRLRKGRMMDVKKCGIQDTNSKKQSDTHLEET

Affinity for PD-L1 in words (human PD-L1 [1])	Affinity for PD-L1 relative to natural partner PD-1 (human PD-L1 [1]; KD by BLI compared with literature PD-1 KD)	Molecule	CT26 cell viability at 72 h, 10 µg/ml ([2]; MTT, 10 µg/ml, 72 h, not significantly different from PBS)	Tumor growth in words, peptide alone [3]	Tumor growth in words, peptide alone, pre-immunized [4]	Cytotoxicity of the peptide (summary statement) ([2]; peptide alone, CT26 cells)	Affinity of murine PD-1 for human PD-L1 versus human PD-1 (human PD-L1 [5])
very weak binding	–	VLIKIPWLRLPGCGTQ [PD-L1ip3SC]	slight decrease of cell viability	–	–	–	–
affinity in the micromolar range	only a few times weaker	CC[C@H](C)[C@H](NC(=O)[C@H](CC(C)C)NC(=O)[C@@H]1CCCN1C(=O)[C@H](CCCCN)NC(=O)[C@H](CC(C)C)NC(=O)[C@H](CCCNC(=N)N)NC(=O)[C@@H](NC(=O)CN)[C@@H](C)O)C(=O)N[C@H](C(=O)N[C@@H](CS)C(=O)N[C@H](C(=O)N[C@@H](CCC(N)=O)C(=O)N[C@@H](Cc1c[nH]c2ccccc12)C(=O)N1CCC[C@H]1C(=O)NCC(=O)N[C@@H](CC(C)C)C(=O)O)C(C)C)[C@@H](C)CC [PD-L1ip3] (H-GTRLKPLIICVQWPGL-OH)	–	neither transduction of a scrambled sequence peptide gene by the adenovirus vector (Ad-PD-L1ip3SC) nor PD-L1ip3 in peptide form alone showed a statistically significant change in tumor growth	minimal effect on tumor growth	negligible cytotoxicity	–
–	–	murine PD-1: murine PD-1, literature affinity for human PD-L1 (protein, UniProt Q02242 25-288, looked up) Programmed cell death protein …: LEVPNGPWRSLTFYPAWLTVSEGANATFTCSLSNWSEDLMLNWNRLSPSNQTEKQAAFCNGLSQPVQDARFQIIQLPNRHDFHMNILDTRRNDSGIYLCGAISLHPKAKIEESPGAELVVTERILETSTRYPSPSPKPEGRFQGMVIGIMSALVGIPVLLLLAWALAVFCSTSMSEARGAGSKDDTLKEEPSAAPVPSVAYEELDFQGREKTPELPTACVHTEYATIVFTEGLGASAMGRRGSADGLQGPRPPRHEDGHCSWPL	–	–	–	–	shows similarity to that of human PD-1 for human PD-L1
